Columns and labels:
Assay type in all cases: cell-based, human
[1] = system: SW1990 pancreatic cancer cells; experiment: MTS assay of SW1990 cultures, single 50 μM dose; conditions: SW1990, 50 μM
In short: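 MTS-based viability was measured 24, 48 or 72 h after a single 50 μM treatment; the agents were α/β/γ/δ-tocotrienol, α/β-tocopherol, tocopherol succinate, geranylgeraniol or succinic acid. The cells were SW1990, cultured in 10% FBS DMEM. Vehicle (ethanol-extracted olive oil) cultures ran in parallel as reference.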

BXPC3 cells = experiment: MTT assay of BXPC3 cultures, single 50 μM dose; design: MTT assay result, run 1 / MTT assay result, run 2 / MTT assay result, run 3 / MTT assay result, run 4 / MTT assay result, run 5 / MTT assay result, run 6 / MTT assay result, run 7 / MTT assay result, av (average) / MTT assay result, av-blank / MTT assay result, av: unit not given here; conditions: BXPC3, 50 μM; for MTT assay result, av-blank: average minus blank
In short: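 Viability measured by MTT assay 48 or 120 hours after one 50 μM treatment with tocol-family compounds, geranylgeraniol, succinic acid or vehicle, with untreated cultures in parallel. BXPC3 cells grown in FBS-supplemented medium, 37° C, humidified 5% CO2.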

MiaPaCa-2 cells = experiment: MTS assay of MiaPaCa2 cultures, single 50 μM dose; conditions: MiaPaCa2, 50 μM
In short: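 This MTS viability assay used MiaPaCa2 cultures treated once with 50 μM compound or vehicle, with an untreated culture grown in parallel for comparison. Cells were maintained in DMEM supplemented with 10% FBS, 1% penicillin-streptomycin and 1% L-glutamine at 37° C. under 5% CO2 and humidity.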

CC(C)=CCC/C(C)=C/CC/C(C)=C/CC[C@]1(C)CCc2cc(O)cc(C)c2O1 [T3 delta, delta tocotrienol]
rel amnt (relative value set to the control) ([1]; 24 hours): 97 | MTS assay result, run 1 ([1]; 24 hours): 0.158 | MTS assay result, run 2 ([1]; 24 hours): 0.149 | MTS assay result, run 3 ([1]; 24 hours): 0.157 | MTS assay result, run 4 ([1]; 24 hours): 0.126 | MTS assay result, run 5 ([1]; 24 hours): 0.147 | MTS assay result, run 6 ([1]; 24 hours): 0.135 | MTS assay result, run 7 ([1]; 24 hours): 0.13 | MTS assay result, run 8 ([1]; 24 hours): 0.142 | MTS assay result, run 9 ([1]; 24 hours): 0.143 | rel amnt (relative value set to the control) ([1]; 48 hours): 83 | MTS assay result, run 1 ([1]; 48 hours): 0.131 | MTS assay result, run 2 ([1]; 48 hours): 0.133 | MTS assay result, run 3 ([1]; 48 hours): 0.12 | MTS assay result, run 4 ([1]; 48 hours): 0.12 | MTS assay result, run 5 ([1]; 48 hours): 0.126 | MTS assay result, run 6 ([1]; 48 hours): 0.119 | MTS assay result, run 7 ([1]; 48 hours): 0.12 | MTS assay result, run 8 ([1]; 48 hours): 0.142 | MTS assay result, run 9 ([1]; 48 hours): 0.127 | rel amnt (relative value set to the control) ([1]; 72 hours): 132 | MTS assay result, run 1 ([1]; 72 hours): 0.667 | MTS assay result, run 2 ([1]; 72 hours): 0.615 | MTS assay result, run 3 ([1]; 72 hours): 0.61 | MTS assay result, run 4 ([1]; 72 hours): 0.587 | MTS assay result, run 5 ([1]; 72 hours): 0.582 | MTS assay result, run 6 ([1]; 72 hours): 0.491 | MTS assay result, run 7 ([1]; 72 hours): 0.52 | MTS assay result, run 8 ([1]; 72 hours): 0.604 | MTS assay result, run 9 ([1]; 72 hours): 0.584 | rel amt (relative value set to the control) (BXPC3 cells; 48 hours): 95 | MTT assay result, av-blank (BXPC3 cells; 48 hours): 0.216 | MTT assay result, av (average) (BXPC3 cells; 48 hours, average of 7 runs): 0.265 | MTT assay result, run 1 (BXPC3 cells; 48 hours): 0.26 | MTT assay result, run 2 (BXPC3 cells; 48 hours): 0.255 | MTT assay result, run 3 (BXPC3 cells; 48 hours): 0.24 | MTT assay result, run 4 (BXPC3 cells; 48 hours): 0.263 | MTT assay result, run 5 (BXPC3 cells; 48 hours): 0.271 | MTT assay result, run 6 (BXPC3 cells; 48 hours): 0.277 | MTT assay result, run 7 (BXPC3 cells; 48 hours): 0.288 | rel amt (relative value set to the control) (BXPC3 cells; 120 hours (5 days)): 81 | MTT assay result, av-blank (BXPC3 cells; 120 hours (5 days)): 0.465 | MTT assay result, av (BXPC3 cells; 120 hours (5 days), average of 7 runs): 0.520 | MTT assay result, run 1 (BXPC3 cells; 120 hours (5 days)): 0.485 | MTT assay result, run 2 (BXPC3 cells; 120 hours (5 days)): 0.49 | MTT assay result, run 3 (BXPC3 cells; 120 hours (5 days)): 0.522 | MTT assay result, run 4 (BXPC3 cells; 120 hours (5 days)): 0.539 | MTT assay result, run 5 (BXPC3 cells; 120 hours (5 days)): 0.551 | MTT assay result, run 6 (BXPC3 cells; 120 hours (5 days)): 0.523 | MTT assay result, run 7 (BXPC3 cells; 120 hours (5 days)): 0.527 | rel amt (relative value set to the control) (MiaPaCa-2 cells; 24 hours): 77 | MTS assay result, run 1 (MiaPaCa-2 cells; 24 hours): 0.174 | MTS assay result, run 2 (MiaPaCa-2 cells; 24 hours): 0.159 | MTS assay result, run 3 (MiaPaCa-2 cells; 24 hours): 0.171 | MTS assay result, run 4 (MiaPaCa-2 cells; 24 hours): 0.139 | MTS assay result, run 5 (MiaPaCa-2 cells; 24 hours): 0.185 | MTS assay result, run 6 (MiaPaCa-2 cells; 24 hours): 0.187 | MTS assay result, run 7 (MiaPaCa-2 cells; 24 hours): 0.18 | MTS assay result, run 8 (MiaPaCa-2 cells; 24 hours): 0.167 | MTS assay result, run 9 (MiaPaCa-2 cells; 24 hours): 0.170 | rel amt (relative value set to the control) (MiaPaCa-2 cells; 48 hours): 67 | MTS assay result, run 1 (MiaPaCa-2 cells; 48 hours): 0.229 | MTS assay result, run 2 (MiaPaCa-2 cells; 48 hours): 0.22 | MTS assay result, run 3 (MiaPaCa-2 cells; 48 hours): 0.218 | MTS assay result, run 4 (MiaPaCa-2 cells; 48 hours): 0.232 | MTS assay result, run 5 (MiaPaCa-2 cells; 48 hours): 0.294 | MTS assay result, run 6 (MiaPaCa-2 cells; 48 hours): 0.272 | MTS assay result, run 7 (MiaPaCa-2 cells; 48 hours): 0.221 | MTS assay result, run 8 (MiaPaCa-2 cells; 48 hours): 0.243 | MTS assay result, run 9 (MiaPaCa-2 cells; 48 hours): 0.241 | rel amt (relative value set to the control) (MiaPaCa-2 cells; 72 hours): 132 | MTS assay result, run 1 (MiaPaCa-2 cells; 72 hours): 0.667 | MTS assay result, run 2 (MiaPaCa-2 cells; 72 hours): 0.615 | MTS assay result, run 3 (MiaPaCa-2 cells; 72 hours): 0.605 | MTS assay result, run 4 (MiaPaCa-2 cells; 72 hours): 0.587 | MTS assay result, run 5 (MiaPaCa-2 cells; 72 hours): 0.582 | MTS assay result, run 6 (MiaPaCa-2 cells; 72 hours): 0.491 | MTS assay result, run 7 (MiaPaCa-2 cells; 72 hours): 0.524 | MTS assay result, run 8 (MiaPaCa-2 cells; 72 hours): 0.604 | MTS assay result, run 9 (MiaPaCa-2 cells; 72 hours): 0.584

Source: patent US8846653B2, “Delta-tocotrienol treatment and prevention of pancreatic cancer” (University of South Florida, priority 2006, dated 2014)
